# Laboratory results taken from patent US10287337B2 (priority 2015, dated 2019).
# “And” between values parts separate entries of the source, which are not always exact repeats. Identical values can stand only once. No end group written: not given here.
# Tests used:
# [1] = target: T1, human calcitonin CGRP1 (CGRP1) membrane (Homo sapiens, UniProt O60894+Q16602); assay type: binding; conditions: for Hill slope: 0.24 nM [125I]-CGRP, Mean±SD; for binding affinity on CGRP receptors (in words): comparison between peptides
# T1 construct: purchased Perkin Elmer (Waltham, Mass.)
# Experimental: CGRP1 membrane was homogenized in the assay buffer (50 mM Tris-HCl pH 7.4, 5 mM MgCl2, 0.5% BSA, 0.05% Tween20). […] After 1 h of incubation, at room temperature, samples were filtered, using a Tomtec cell harvester, through glass fiber filters that had been presoaked in 0.05% polyethyleneimine and washed with the cold Tris buffer (50 mM Tris-HCl pH7.4). Filters were counted on a betaplate reader (Wallac).
# [2] = test system: spared nerve injury-induced neuropathic pain in rats; experiment: Spared nerve injury (SNI)-induced neuropathic pain model, thermal and mechanical pain thresholds; assay type: in vivo, rat; conditions: rat, in vivo
# Experimental: Of the three branches of the sciatic nerve the tibial and common peroneal nerves were cut and ligated leaving the sural nerve intact. Pre-surgery baselines (BL, 100%) of the thermal and mechanical pain thresholds of the ipsilateral hindpaws were measured using the Hargreaves thermal stimulator (6.0 A with a surface temperature of 30° C.; Hargreaves et al., 1988) and von Frey hair monofilaments (up-down method, Chaplan et al., 1994). […] All drug testing was conducted with this post-SNI period.
# The rat recovered from anesthesia within a few minutes and the thermal and mechanical pain thresholds were determined at 0.5, 1, 2, 3, 4, 5 and 6 hour after the treatment using the methods described above.
# Using the same test protocol in a different cohort of SNI rats, novel AFA-peptide 3 (0.1, 1 and 3 μM, each 50 μL) or the vehicle (50 μL) was injected into the ipsilateral hindpaws under a brief and light anesthesia condition (with 2.5% isoflurane). The thermal and mechanical pain thresholds were determined at 0.5, 1, 2, 3, 4, 5 and 6 hour after the treatment. […]
# [3] = test system: STZ-induced diabetic pain in rats; experiment: Streptozotocin (STZ)-induced diabetic neuropathic pain model; conditions: rat, in vivo
# Experimental: Painful peripheral neuropathy is a common secondary complication of diabetes mellitus. Streptozotocin (STZ)-induced diabetic polyneuropathy causes more broad pain and has neurogenic inflammation component in rodents (Bishnoi et al., 2011). Prior to STZ administration, each rat's baseline of thermal and mechanical thresholds on their individual hindpaws were assessed using the Hargreaves thermal pain test, and von Frey mechanical pain test, respectively.
# After removing the patches, hindpaw withdrawal latencies induced by continuous and noxious heat (Hargreaves) were assessed at 1 hour post-microneedle application.
# [4] = test system: UVB radiation-induced inflammatory pain in rat cheek; assay type: in vivo; conditions: rat, in vivo
# Description: Ultraviolet B (UVB) radiation causes cutaneous inflammation in humans and animals. One important clinical consequence of UVB-induced inflammation is causing hyperalgesia. Changes in thermal sensitivities in the area of primary UVB irradiation are well documented both in humans and in the animal models (Zhang et al., 2009). […] This model provides an experimental model of post radiation pain and can mimic one type of burn pain. To determine the magnitude of anti-inflammatory pain effects for a given drug transdermally delivered by way of microneedle delivery, the depilated rat's cheeks were exposed to an inflammatory dosage of Ultraviolet B radiation (Zhang et al., 2009).
# With the skin of a rat's cheek was stretched, the circular (8 mm in diameter) fiberglass applicator of the UV Curing Device (Dymax Bluewave 200) was applied to the center of the rat's cheek. To produce an appropriate inflammation, a total dose of 1200 mJ/cm^2 UVB was administered to one rat cheek for 25 seconds. The same procedure was performed on the rat's contralateral cheek. Upon completion of UVB irradiation, all rats were returned to their home cages and were assessed for thermal pain between 24-48 hours later. […] The rats were lightly anesthetized with urethane (800 mg/kg, IP) and heat-induced withdrawal latencies of the cheeks (an indicator of C fiber stimulation responses) were measured. […] A sham control group (n=6) were only completely depilated and cleansed with ethanol wipes but without UVB challenge.
# After removing patches, cheek withdrawal latencies induced by continuous and noxious heat were assessed at different time points from the end of the 20 minute treatment period up to 3 hours post treatment.
# The patches were applied on the rat cheek for 20 minutes. After removing the patches, cheek withdrawal latencies induced by continuous and noxious heat were assessed at different time points up to 3 hours as described above.
# (§1) After removing the patches, cheek withdrawal latencies induced by continuous and noxious heat were assessed at different time points up to 3 hours.
# Accordingly, anti-inflammatory effects were examined 48 hours post-UVB and after the application of the patch. Twelve rats were subjected to UVB radiation (1200 mJ/cm^2). […] The patch was placed over the inflamed area for a period of 20 minutes. […] Sham control group rats (n=6) were completely depilated and cleansed with ethanol wipes but without any other treatment. The rats were returned to their home cages, and assessed for thermal pain responses 48 hours later. As usual, cheek withdrawal latencies in response to continuous and noxious heat were recorded over a 3-hour time period (hours 49-51 post-UVB).
# as §1
# After removing the patches, cheek withdrawal latencies induced by continuous and noxious heat were assessed at different time points from 20 minutes post administration up to 3 hours.
# Because UVB-irradiation may increase skin permeability, a topical formulation, but not limited to the sample shown here, was made.
# [5] = test system: normal physiological pain sensation in normal rats; experiment: Normal rats cheek withdrawal latency to noxious heat; conditions: rat, in vivo
# Experimental: Ideal therapeutics of anti-inflammatory pain or anti-hypersensitivity (occurred in neuropathic pain) should not interfere with normal physiological pain sensations. […] After removing the patches, cheek withdrawal latencies (mean±SEM) were assessed using continuous and noxious heat at different time points within the initial 3 hours test period.
# [6] = test system: electrocutaneous stimulation-induced facial pain in rats; experiment: Electrocutaneous stimulation-induced facial inflammatory pain model; assay type: in vivo, rat; conditions: rat, in vivo
# Experimental: In humans electrocutaneous stimulation elicited vasodilatation in the cheek (Vassend and Knardahl, 2005). […] Baseline facial thermal thresholds of rats (Sprague-Dawley, male, 260-300 g) were assessed on the rats' depilated left cheek and then each rat received 1 hour of electrocutaneous facial stimulation using WPI ISOSTIM™ A320 (World Precision Instruments, 0.4 mA intensity, 10 ms duration, Is inter-pulse interval). 24 hr after stimulation (Day 1), each rat's thermal pain threshold mediated by A-delta fiber and C fiber were separately measured using a thermal nociception lamp (variable voltage regulator model: No. SC-3M) to evoke A-delta and C nerve fiber-mediated cheek withdrawal. […] Thermal thresholds were measured once every 0.5 hour for the first 3 hours post-I.N. dosing, and then 4, 5, and 6 hour post-I.N. dosing. Voltage regulator set to 90V for A-delta fiber testing and 45V for C fiber testing. Cutoff set at 6 seconds and 20 seconds for A-delta fiber and C fiber testing, respectively.
# [7] = test system: paw incision-induced postoperative pain in rats; experiment: Paw incision-induced postoperative pain model, mechanical pain threshold; assay type: in vivo, rat; conditions: rat, in vivo
# Description: A clinically applicable incision model in rodents is a hind-paw deep incision that produces a robust mechanical and cold allodynia, and thermal hyperalgesia (Pogatzki et al., 2003; Xu and Brennan, 2010). Male rats (Sprague-Dawley, 250-260 g, Harlan) used (n=8/group) were anesthetized with 2.5% isoflurane and the skin of the dorsolateral hindpaw surface were prepped by first depilitating it (using Nair), followed by rinsing and application of povidone-iodine. Afterwards, a 5 mm longitudinal incision was made near the hairy/glabrous border though the skin and subcutaneous fascia of the left hindpaw as described by (Pogatzki et al., 2003; Xu and Brennan, 2010). After briefly elevating the underlying muscle with curved forceps the wound is closed with a single nylon (8-0) mattress stitch.
# Pre-surgery (baseline) and 24 hours after the surgery, the mechanical allodynia of the incision hindpaws of the rats were assessed using von Frey monofilaments with an up/down procedure (Chaplan et al., 1994). […] Mechanical pain thresholds were measured at 0.5, 1, 2, 3, 4, 5 and 6 hours post-intradermal injection.
# [8] = test system: UVB radiation-induced inflammatory pain in rat cheek; assay type: in vivo; conditions: rat, in vivo; remark: listed apart in the source
# T1 sequence (O60894 27-148): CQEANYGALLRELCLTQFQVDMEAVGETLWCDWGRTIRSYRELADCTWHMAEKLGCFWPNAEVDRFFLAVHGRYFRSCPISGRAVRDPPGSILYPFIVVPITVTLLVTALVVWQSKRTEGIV
# T1 sequence (Q16602 23-461): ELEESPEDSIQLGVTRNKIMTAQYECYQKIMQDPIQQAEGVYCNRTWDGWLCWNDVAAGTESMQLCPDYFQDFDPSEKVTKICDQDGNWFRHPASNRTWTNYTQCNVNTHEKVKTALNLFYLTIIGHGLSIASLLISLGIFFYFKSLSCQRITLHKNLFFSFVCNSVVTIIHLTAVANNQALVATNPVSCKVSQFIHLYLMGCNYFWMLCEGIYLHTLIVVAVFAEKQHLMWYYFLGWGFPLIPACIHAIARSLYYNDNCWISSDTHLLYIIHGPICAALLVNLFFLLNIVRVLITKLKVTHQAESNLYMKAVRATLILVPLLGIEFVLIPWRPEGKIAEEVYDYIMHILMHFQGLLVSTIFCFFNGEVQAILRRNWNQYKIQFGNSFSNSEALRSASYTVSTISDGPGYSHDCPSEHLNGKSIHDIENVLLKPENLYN
compound,measurement,setting,value
"H-NFAPTNVGPFAF-NH2 [AFA- peptide 10, NH2-N-F-A-P-T-N-V-G-P-F-A-F-CONH2]",Hill slope,[1],1.07 ± 0.01
same,binding affinity on CGRP receptors (in words),[1],higher affinities than conventional CGRP 27-37 and CGRP 8-37
"H-NFFPTNVGPFAF-NH2 [AFA- peptide 9, NH2-N-F-F-P-T-N-V-G-P-F-A-F-CONH2]",Hill slope,[1],1.07 ± 0.05
same,binding affinity on CGRP receptors (in words),[1],higher affinities than conventional CGRP 27-37 and CGRP 8-37
"H-NLVPTNVGPFAF-NH2 [AFA- peptide 8, NH2-N-L-V-P-T-N-V-G-P-F-A-F-CONH2]",Hill slope,[1],0.88 ± 0.18
"H-NFLPTNVGPFAF-NH2 [AFA- peptide 7, NH2-N-F-L-P-T-N-V-G-P-F-A-F-CONH2]",Hill slope,[1],1.03 ± 0.15
same,binding affinity on CGRP receptors (in words),[1],higher affinities than conventional CGRP 27-37 and CGRP 8-37
"H-NFIPTNVGPFAF-NH2 [AFA- peptide 6, NH2-N-F-I-P-T-N-V-G-P-F-A-F-CONH2]",Hill slope,[1],1.13 ± 0.13
YVPTAVGPFAF-NH2 [CGRP 27-37],Hill slope,[1],1.62 ± 0.25
CSCC[C@H](NC(=O)CNC(=O)CNC(=O)[C@H](CO)NC(=O)[C@H](CCCNC(=N)N)NC(=O)[C@H](CO)NC(=O)[C@H](CC(C)C)NC(=O)[C@H](CC(C)C)NC(=O)CNC(=O)[C@H](C)NC(=O)[C@H](CC(C)C)NC(=O)[C@H](CCCNC(=N)N)NC(=O)[C@H](Cc1c[nH]cn1)NC(=O)[C@@H](NC(=O)[C@@H](N)C(C)C)[C@@H](C)O)C(=O)N[C@H](C(=O)N[C@@H](CCCCN)C(=O)N[C@@H](CO)C(=O)N[C@@H](CC(N)=O)C(=O)N[C@@H](Cc1ccccc1)C(=O)N[C@H](C(=O)N1CCC[C@H]1C(=O)N[C@H](C(=O)N[C@@H](CC(N)=O)C(=O)N[C@H](C(=O)NCC(=O)N[C@@H](CO)C(=O)N[C@@H](CCCCN)C(=O)N[C@@H](C)C(=O)N[C@@H](Cc1ccccc1)C(N)=O)C(C)C)[C@@H](C)O)C(C)C)C(C)C [CGRP 8-37],duration of anti-allodynic effect,[2],up to 6 hours
same,duration of thermal antihyperalgesic effect,[2],up to 5 hours
same,effect on thermal threshold (in words),[2],full reversal to baseline thermal threshold values
same,return toward baseline mechanical sensitivity,[2],~25%
same,thermal and mechanical pain thresholds (in words),[2],reduced SNI-induced neuropathic pain
same,time of full reversal / peak antihyperalgesic effect after application,[2],around 1 hour
same,time of maximal anti-allodynic effect post-microneedle application,[2],3 h
same,return to mechanical pain baseline values,[3],35%
same,thermal threshold (in words),[3],full return to their baseline thermal thresholds
same,"Average Reduced Latency for Inflammation, Mean",[4],9.9 s and 10.5 s and 11.2 s and 11.0 s and 12.2 s and 8.0 s and 9.1 s
same,C-fiber-mediated thermal pain thresholds vs vehicle (in words),[4],significant and substantial increase
same,duration of action,[4],2 h
same,"Normal Rats Average Pain Response Latency, Mean",[5],10.3 s and 11.0 s and 11.2 s and 10.6 s and 10.5 s and 9.6 s and 10.1 s and 10.2 s
same,analgesic effect on normal nociceptive pain (in words),[5],did not produce any measurable analgesic effect
same,A-delta fiber-mediated pain withdrawal latencies vs vehicle (in words),[6],insignificant analgesic effects
same,C-fiber-mediated pain withdrawal latencies vs vehicle (in words),[6],even more substantial and significantly prolonged
same,"thermal pain thresholds in naïve, non-facial stimulation rats (in words)",[6],did not alter thermal pain thresholds
same,mechanical pain thresholds vs vehicle (in words),[7],significantly increased mechanical pain thresholds
same,onset of analgesic effect post treatment,[7],1 h
same,A-delta-fiber-mediated responses (in words),[8],little effects
"CCN(CC)CC(=O)Nc1c(C)cccc1C [Lidocaine, lidocaine]",thermal and mechanical pain thresholds (in words),[2],produced positive control
same,analgesic effect on normal nociceptive pain (in words),[5],produced analgesic effect on normal nociceptive pain
"NCC1(CC(=O)O)CCCCC1 [Gabapentin, gabapentin]",duration of thermal antihyperalgesic effect,[2],3 h
same,effect on thermal threshold (in words),[2],significant antihyperalgesic effect
same,time of full reversal / peak antihyperalgesic effect after application,[2],1 h
